This is an account of results in patent US11447505B1, “Pyrrolo[2,3-b]pyridine compounds and their use in the treatment of cancer” (priority 2017, dated 2022).

The target in one assay is MRCKα (Homo sapiens (Human), UniProt Q5VT25). In words: MRCKα kinase assay (IMAP fluorescence polarization). Format: biochemical. From the text:
(§1) MRCKα, MRCKβ, ROCK1 and ROCK2 Kinase Assays

Assay [1] has as its target T1, MRCKβ (Homo sapiens (Human), UniProt Q9Y5S2). In words: MRCKβ kinase assay (IMAP fluorescence polarization). Type of assay: biochemical.
From the text: as §1

The target of another assay is ROCK2 (Homo sapiens (Human), UniProt O75116). In words: ROCK2 kinase assay (IMAP fluorescence polarization). Type of assay: biochemical.
Assay [2] concerns the target T1, MRCKβ. Kind of assay: MRCKβ cellular assay (pMLC T18/S19 immunoblot, MDA-MB-231 cells with doxycycline inducible kinase domain). Format: cell-based. The procedure: (§2) MRCKβ, ROCK1 and ROCK2 Cellular Assays
(§3) MDA-MB-231 cells expressing doxycycline inducible ROCK1, ROCK2 or MRCKβ kinase domains were plated at 1.1×10^5 cells per well of a 12 well plate. After 24 hours, cells were treated with 1 μg/ml doxycycline for 18 hours to induce kinase domain expression and then tested over a suitable concentration range with compounds of the invention for 60 minutes. Cells were then washed with PBS and lysed with Tris-SDS lysis Buffer (50 mM Tris-HCl pH7.4, 0.5% (v/v) SDS, 1×PhosStop Inhibitors (04 906 837 001; Roche) and 1×Complete Protease Inhibitors (04 693 124 001; Roche)). Whole cell lysates were clarified by passing through QIAshredder spin columns, separated by SDS-PAGE, and quantitative immunoblotting performed using a LI-COR Odyssey IR scanner to determine pMLC (T18/S19) and α-Tubulin levels.
For orientation: Immunoblotting shows a protein as a band on a membrane.

Assay [3] concerns the target T2, ROCK1 (Homo sapiens (Human), UniProt Q13464). In words: ROCK1 cellular assay (pMLC T18/S19 immunoblot, MDA-MB-231 cells with doxycycline inducible kinase domain). Type of assay: cell-based. The procedure:
as §2, §3

The target of assay [4] is T2, ROCK1. In words: biochemical.
Procedure: (§4) MRCKα, MRCKβ, ROCK1 and ROCK2 assays were performed using an IMAP fluorescence polarization assay format (Molecular Devices Inc.). […] Typically, dose response analyses were performed over concentration ranges from 0.005-100 μM. […] After 30 min incubation to allow binding reagent to bind phosphorylated peptide, fluorescence polarization was measured on a Tecan Saphire^2 plate reader at excitation (470 nm) and emission (530 nm) wavelengths.
The target of assay [5] is T2, ROCK1. The settings on record: read-out: ROCK1 Average Ki; 1 μM ATP.
Procedure: as §4
[6] abbreviates: 1 μM ATP, read-out: MRCK-a Average Ki.
The mark [7] stands for this setting: 1 μM ATP, read-out: MRCK-B Average Ki.
[8] abbreviates: 1 μM ATP, read-out: ROCK2 Average Ki.
Where [9] appears, read: MDA-MB-231 cells, doxycycline inducible kinase domain, 60 minutes, pMLC (T18/S19), read-out: Cellular assay - MRCK-b inhibition MEAN.
The mark [10] stands for this setting: MDA-MB-231 cells, doxycycline inducible kinase domain, 60 minutes, pMLC (T18/S19), read-out: Cellular assay - ROCK1 inhibition MEAN.

Where two headings read alike, the source gives them in different places.

Sequence of MRCKα (Q5VT25 whole entry): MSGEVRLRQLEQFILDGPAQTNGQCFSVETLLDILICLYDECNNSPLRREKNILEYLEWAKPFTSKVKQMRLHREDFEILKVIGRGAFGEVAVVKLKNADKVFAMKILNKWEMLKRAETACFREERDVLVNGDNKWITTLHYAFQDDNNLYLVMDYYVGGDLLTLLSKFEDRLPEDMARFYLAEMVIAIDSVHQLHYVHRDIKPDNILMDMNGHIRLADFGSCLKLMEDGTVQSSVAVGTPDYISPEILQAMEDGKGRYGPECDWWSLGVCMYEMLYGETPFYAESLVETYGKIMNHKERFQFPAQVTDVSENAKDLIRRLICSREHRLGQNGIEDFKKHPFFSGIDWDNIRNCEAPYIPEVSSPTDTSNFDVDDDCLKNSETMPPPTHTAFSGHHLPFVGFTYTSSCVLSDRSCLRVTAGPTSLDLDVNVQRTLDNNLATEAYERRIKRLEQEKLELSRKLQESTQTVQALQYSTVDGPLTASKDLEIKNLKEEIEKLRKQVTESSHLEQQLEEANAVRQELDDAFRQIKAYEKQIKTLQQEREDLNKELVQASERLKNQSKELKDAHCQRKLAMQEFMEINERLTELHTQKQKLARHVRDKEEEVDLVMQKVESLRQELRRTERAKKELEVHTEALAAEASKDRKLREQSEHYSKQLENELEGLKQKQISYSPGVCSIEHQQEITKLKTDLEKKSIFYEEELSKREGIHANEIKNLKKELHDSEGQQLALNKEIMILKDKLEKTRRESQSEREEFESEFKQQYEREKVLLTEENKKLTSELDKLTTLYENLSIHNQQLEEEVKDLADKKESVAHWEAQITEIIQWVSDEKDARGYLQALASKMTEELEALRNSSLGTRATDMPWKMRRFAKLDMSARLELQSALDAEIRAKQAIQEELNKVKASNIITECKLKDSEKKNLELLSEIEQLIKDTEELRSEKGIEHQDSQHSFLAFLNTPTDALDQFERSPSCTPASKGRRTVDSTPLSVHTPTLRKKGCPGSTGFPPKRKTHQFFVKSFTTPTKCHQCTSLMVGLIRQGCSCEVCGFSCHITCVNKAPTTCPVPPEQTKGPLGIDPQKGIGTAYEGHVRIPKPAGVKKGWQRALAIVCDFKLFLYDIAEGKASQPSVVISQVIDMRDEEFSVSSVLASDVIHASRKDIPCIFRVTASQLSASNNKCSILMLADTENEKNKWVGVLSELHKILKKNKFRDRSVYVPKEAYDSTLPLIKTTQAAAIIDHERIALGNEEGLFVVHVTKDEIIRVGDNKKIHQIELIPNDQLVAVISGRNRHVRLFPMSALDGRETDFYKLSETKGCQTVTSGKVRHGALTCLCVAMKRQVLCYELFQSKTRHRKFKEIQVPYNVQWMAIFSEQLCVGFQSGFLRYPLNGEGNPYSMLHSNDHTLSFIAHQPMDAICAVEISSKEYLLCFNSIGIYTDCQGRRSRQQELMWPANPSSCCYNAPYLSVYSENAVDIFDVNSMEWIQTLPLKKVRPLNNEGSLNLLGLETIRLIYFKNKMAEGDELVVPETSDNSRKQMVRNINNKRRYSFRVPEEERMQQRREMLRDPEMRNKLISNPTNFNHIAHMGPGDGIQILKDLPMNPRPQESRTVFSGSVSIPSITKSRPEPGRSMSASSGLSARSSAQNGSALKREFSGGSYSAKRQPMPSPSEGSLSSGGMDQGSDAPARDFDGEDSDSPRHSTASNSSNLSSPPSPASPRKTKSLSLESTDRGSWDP
Sequence of ROCK2 (O75116 whole entry, the tested form may be a part): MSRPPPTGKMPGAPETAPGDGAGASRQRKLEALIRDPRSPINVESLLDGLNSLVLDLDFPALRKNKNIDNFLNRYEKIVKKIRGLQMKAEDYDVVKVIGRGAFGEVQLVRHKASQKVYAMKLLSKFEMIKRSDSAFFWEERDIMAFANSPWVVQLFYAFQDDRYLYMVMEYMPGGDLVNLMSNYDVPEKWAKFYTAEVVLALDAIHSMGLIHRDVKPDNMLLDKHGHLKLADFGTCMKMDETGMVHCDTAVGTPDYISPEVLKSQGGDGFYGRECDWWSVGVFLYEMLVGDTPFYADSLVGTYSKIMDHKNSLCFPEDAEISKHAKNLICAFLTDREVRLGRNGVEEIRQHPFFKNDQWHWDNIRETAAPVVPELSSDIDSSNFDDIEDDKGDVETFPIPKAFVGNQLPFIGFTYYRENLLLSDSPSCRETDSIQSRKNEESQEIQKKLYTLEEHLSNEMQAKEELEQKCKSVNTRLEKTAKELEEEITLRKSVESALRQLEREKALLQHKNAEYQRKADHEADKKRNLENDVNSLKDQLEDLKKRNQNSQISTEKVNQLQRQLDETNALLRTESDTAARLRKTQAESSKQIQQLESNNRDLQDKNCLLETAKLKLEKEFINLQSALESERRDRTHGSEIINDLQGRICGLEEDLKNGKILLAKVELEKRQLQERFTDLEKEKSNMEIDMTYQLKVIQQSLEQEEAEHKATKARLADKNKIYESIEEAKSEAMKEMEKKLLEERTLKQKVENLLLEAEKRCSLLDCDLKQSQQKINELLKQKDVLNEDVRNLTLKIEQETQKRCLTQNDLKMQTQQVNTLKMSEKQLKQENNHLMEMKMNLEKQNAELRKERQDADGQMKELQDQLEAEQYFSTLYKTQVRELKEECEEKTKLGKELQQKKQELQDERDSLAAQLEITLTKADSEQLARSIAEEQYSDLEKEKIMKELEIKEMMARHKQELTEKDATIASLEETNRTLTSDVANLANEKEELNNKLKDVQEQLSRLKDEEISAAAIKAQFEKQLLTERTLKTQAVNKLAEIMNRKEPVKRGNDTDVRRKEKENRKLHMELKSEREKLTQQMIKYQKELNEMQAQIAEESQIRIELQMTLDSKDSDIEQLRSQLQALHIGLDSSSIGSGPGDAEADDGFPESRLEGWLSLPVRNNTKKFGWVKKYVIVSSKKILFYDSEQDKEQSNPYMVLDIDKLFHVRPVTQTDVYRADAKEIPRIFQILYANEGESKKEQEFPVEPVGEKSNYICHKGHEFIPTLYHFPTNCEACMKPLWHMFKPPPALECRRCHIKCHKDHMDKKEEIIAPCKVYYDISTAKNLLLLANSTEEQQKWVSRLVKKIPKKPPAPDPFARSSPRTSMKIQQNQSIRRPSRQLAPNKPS
T2 sequence (Q13464 2-1354 limits assumed): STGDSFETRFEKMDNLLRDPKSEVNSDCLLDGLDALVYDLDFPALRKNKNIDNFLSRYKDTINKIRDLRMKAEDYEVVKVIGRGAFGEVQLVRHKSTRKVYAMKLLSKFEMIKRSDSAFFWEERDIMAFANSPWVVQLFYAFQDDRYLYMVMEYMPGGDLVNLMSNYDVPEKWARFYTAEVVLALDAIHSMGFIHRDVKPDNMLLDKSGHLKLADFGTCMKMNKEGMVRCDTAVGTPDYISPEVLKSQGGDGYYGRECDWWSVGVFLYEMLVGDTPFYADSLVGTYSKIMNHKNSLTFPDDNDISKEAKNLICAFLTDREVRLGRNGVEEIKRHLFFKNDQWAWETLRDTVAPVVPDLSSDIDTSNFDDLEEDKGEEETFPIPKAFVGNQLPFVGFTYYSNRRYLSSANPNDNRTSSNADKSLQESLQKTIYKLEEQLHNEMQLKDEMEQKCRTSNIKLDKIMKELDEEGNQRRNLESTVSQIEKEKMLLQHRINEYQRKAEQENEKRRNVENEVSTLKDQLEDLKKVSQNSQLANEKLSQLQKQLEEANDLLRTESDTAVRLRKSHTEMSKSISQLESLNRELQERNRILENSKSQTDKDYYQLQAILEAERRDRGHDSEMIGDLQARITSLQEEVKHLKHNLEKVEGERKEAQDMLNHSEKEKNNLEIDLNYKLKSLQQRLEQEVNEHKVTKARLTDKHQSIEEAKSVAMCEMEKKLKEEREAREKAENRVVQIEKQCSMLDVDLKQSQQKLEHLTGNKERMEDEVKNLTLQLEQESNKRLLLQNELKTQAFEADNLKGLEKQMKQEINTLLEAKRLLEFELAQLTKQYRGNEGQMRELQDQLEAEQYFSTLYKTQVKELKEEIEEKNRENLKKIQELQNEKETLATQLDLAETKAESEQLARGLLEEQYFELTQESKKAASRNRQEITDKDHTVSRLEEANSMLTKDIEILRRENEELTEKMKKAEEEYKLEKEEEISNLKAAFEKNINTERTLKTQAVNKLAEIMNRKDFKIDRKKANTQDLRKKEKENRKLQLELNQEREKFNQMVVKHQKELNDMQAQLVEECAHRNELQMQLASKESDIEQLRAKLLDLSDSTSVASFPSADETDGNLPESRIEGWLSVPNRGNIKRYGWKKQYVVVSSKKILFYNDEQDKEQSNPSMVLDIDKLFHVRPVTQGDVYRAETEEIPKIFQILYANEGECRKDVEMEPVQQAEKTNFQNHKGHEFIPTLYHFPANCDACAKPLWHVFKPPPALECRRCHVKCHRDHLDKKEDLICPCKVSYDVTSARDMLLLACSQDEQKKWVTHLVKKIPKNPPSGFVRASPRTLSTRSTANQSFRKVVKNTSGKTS

As to `Cc1cnc(-c2c[nH]c3nccc(N4CC[C@@]5(CCCCN5)C4)c23)s1` [Example E131, 2-[4-[(5S)-2,6-diazaspiro[4.5]decan-2-yl]-1H-pyrrolo[2,3-b]pyridin-3-yl]-5-methyl-thiazole], the inhibition constant Ki – broadly, a dissociation constant, usually derived from enzyme kinetics or from competition with a known ligand – on MRCKα (setting [6]) was 0.021 nM; at MRCKβ [1] (setting [7]) it was 0.0601 nM; at ROCK2 (setting [8]) it was 24.8 nM; on ROCK1 [4] it was 107 nM. Further, the IC50 on MRCKβ [2] (setting [9]) is 318 nM; on ROCK1 [3] (setting [10]) it was more than 30000 nM.

For `CCN1CCCC[C@@]12CCCN(c1ccnc3[nH]cc(-c4ccncn4)c13)C2` [Example E207, (6S)-1-ethyl-8-(3-pyrimidin-4-yl-1H-pyrrolo[2,3-b]pyridin-4-yl)-1,8-diazaspiro[5.5]undecane], the Ki is 0.0275 nM at MRCKα (setting [6]), 0.0395 nM at MRCKβ [1] (setting [7]), 8.34 nM at ROCK2 (setting [8]) and 20 nM on ROCK1 [5]. Moreover, the figures for the IC50 on MRCKβ [2] (setting [9]) and at ROCK1 [3] (setting [10]) were 170 nM and more than 30000 nM, respectively.

For `c1cc(N2CCC3(CCCN3)C2)c2c(-c3ccsn3)c[nH]c2n1` (centres unmarked) [Example E136, 3-[4-(1,7-diazaspiro[4.4]nonan-7-yl)-1H-pyrrolo[2,3-b]pyridin-3-yl]isothiazole], the Ki on MRCKα was found to be 0.207 nM; on MRCKβ [1], 0.12 nM; on ROCK2, 14.2 nM; at ROCK1 [4], 70.7 nM. Besides, the IC50 is 457 nM on MRCKβ [2] and more than 30000 nM at ROCK1 [3].

In the case of `Cc1csnc1-c1c[nH]c2nccc(N3CCCC4(CCCCN4)C3)c12` (centres unmarked) [Example E142, 3-[4-(1,8-diazaspiro[5.5]undecan-8-yl)-1H-pyrrolo[2,3-b]pyridin-3-yl]-4-methyl-isothiazole], the inhibition constant (Ki) on MRCKα (setting [6]) is 0.216 nM; at MRCKβ [1] (setting [7]) it was 0.203 nM; on ROCK2 (setting [8]) it was 33600 nM; at ROCK1 [4], 104 nM. The IC50 is 1210 nM on MRCKβ [2] (setting [9]) and more than 30000 nM at ROCK1 [3] (setting [10]).

For `c1ccc(-c2c[nH]c3nccc(N4CCC[C@@]5(CCCCN5)C4)c23)nc1` [Example E139, (6S)-8-[3-(2-pyridyl)-1H-pyrrolo[2,3-b]pyridin-4-yl]-1,8-diazaspiro[5.5]undecane], the Ki came to 0.0435 nM at MRCKα (setting [6]), 0.0391 nM at MRCKβ [1] (setting [7]), 41 nM at ROCK2 (setting [8]) and 99.1 nM on ROCK1 [5]. In addition, the results for the IC50 on MRCKβ [2] (setting [9]) and on ROCK1 [3] (setting [10]) were 107 nM and more than 30000 nM, respectively.

Take `c1ncc(-c2c[nH]c3nccc(N4CCC[C@@]5(CCCCN5)C4)c23)cn1` [Example E122, (6S)-8-(3-pyrimidin-5-yl-1H-pyrrolo[2,3-b]pyridin-4-yl)-1,8-diazaspiro[5.5]undecane]: the Ki stood at 0.0284 nM at MRCKα (setting [6]), 0.585 nM on MRCKβ [1] (setting [7]), 77.7 nM at ROCK2 (setting [8]) and 196 nM at ROCK1 [4]. In addition, the IC50 at MRCKβ [2] (setting [9]) was 101 nM; at ROCK1 [3] (setting [10]), more than 30000 nM.

Consider `N#Cc1c[nH]c2nccc(N3CCC[C@@]4(CCCCN4)C3)c12` [Example E187, 4-[(6S)-1,8-diazaspiro[5.5]undecan-8-yl]-1H-pyrrolo[2,3-b]pyridine-3-carbonitrile], for which the inhibition constant Ki came out at 0.249 nM at MRCKα (setting [6]), 0.179 nM at MRCKβ [1] (setting [7]), 44.2 nM on ROCK2 (setting [8]) and 152 nM on ROCK1 [5]. The IC50 was 782 nM on MRCKβ [2] and more than 30000 nM at ROCK1 [3].

For `Cc1cnc(-c2c[nH]c3nccc(N4CCC[C@@]5(CCCCN5)C4)c23)s1` [Example E146, 2-[4-[(6S)-1,8-diazaspiro[5.5]undecan-8-yl]-1H-pyrrolo[2,3-b]pyridin-3-yl]-5-methyl-thiazole], the inhibition constant (Ki) on MRCKα (setting [6]) turned out to be 0.0493 nM; on MRCKβ [1] (setting [7]) it was 0.0539 nM; on ROCK2 (setting [8]), 100 nM; on ROCK1 [4] it was 203 nM. Further, the IC50 is 150 nM on MRCKβ [2] (setting [9]) and more than 30000 nM on ROCK1 [3] (setting [10]).

As to `c1cc(N2CCCC3(CCCCN3)C2)c2c(-c3ncsn3)c[nH]c2n1` (centres unmarked) [Example E236, 3-[4-[1,8-diazaspiro[5.5]undecan-8-yl]-1H-pyrrolo[2,3-b]pyridin-3-yl]-1,2,4-thiadiazole], the inhibition constant Ki worked out at 0.0945 nM at MRCKα (setting [6]), 0.0898 nM at MRCKβ [1] (setting [7]), 105 nM at ROCK2 (setting [8]) and 390 nM on ROCK1 [4]. Further, the IC50 on MRCKβ [2] (setting [9]) is 145 nM; at ROCK1 [3] (setting [10]), more than 30000 nM.

For the compound `CCN1CCCCC12CCCN(c1ccnc3[nH]cc(-c4ncc(C)s4)c13)C2` (centres unmarked) [Example E210, 2-[4-(1-ethyl-1,8-diazaspiro[5.5]undecan-8-yl)-1H-pyrrolo[2,3-b]pyridin-3-yl]-5-methyl-thiazole], the Ki at MRCKα (setting [6]) is 0.127 nM; at MRCKβ [1] (setting [7]), 0.0634 nM; on ROCK2 (setting [8]), 152 nM; at ROCK1 [4], 50200 nM. The IC50 on MRCKβ [2] (setting [9]) is 701 nM; at ROCK1 [3] (setting [10]), more than 30000 nM.

As for `CN1CCCC[C@@]12CCCN(c1ccnc3[nH]cc(-c4ccncn4)c13)C2` [Example E206, (6S)-1-methyl-8-(3-pyrimidin-4-yl-1H-pyrrolo[2,3-b]pyridin-4-yl)-1,8-diazaspiro[5.5]undecane], the Ki at MRCKα (setting [6]) was 0.0189 nM; on MRCKβ [1] (setting [7]), 0.0277 nM; on ROCK2 (setting [8]), 4.19 nM; at ROCK1 [5], 20.6 nM. Besides, the IC50 is 138 nM on MRCKβ [2] (setting [9]) and more than 30000 nM on ROCK1 [3] (setting [10]).

“3-ethyl-1-[3-(5-methylthiazol-2-yl)-1H-pyrrolo[2,3-b]pyridin-4-yl]piperidin-3-amine [Example E177]”: the Ki on MRCKα (setting [6]) came to 0.0822 nM; on MRCKβ [1] (setting [7]) it was 0.0888 nM; at ROCK2 (setting [8]) it was 96.2 nM; at ROCK1 [5] it was 33.7 nM. For the same compound, the figures for the IC50 at MRCKβ [2] (setting [9]) and on ROCK1 [3] (setting [10]) were 274 nM and more than 30000 nM, respectively.

As for `c1cc(-c2c[nH]c3nccc(N4CCC[C@@]5(CCCCN5)C4)c23)cnn1` [Example E174, (6S)-8-(3-pyridazin-4-yl-1H-pyrrolo[2,3-b]pyridin-4-yl)-1,8-diazaspiro[5.5]undecane], the Ki on MRCKβ [1] (setting [7]) came to 0.0256 nM; on ROCK1 [4], 405 nM. The IC50 at MRCKβ [2] (setting [9]) is 50.9 nM; on ROCK1 [3] (setting [10]), 2250 nM.

For the compound `CCN1CCCCC12CCCN(c1ccnc3[nH]cc(C#N)c13)C2` (centres unmarked) [Example E211, 4-(1-ethyl-1,8-diazaspiro[5.5]undecan-8-yl)-1H-pyrrolo[2,3-b]pyridine-3-carbonitrile], the inhibition constant Ki at MRCKα (setting [6]) worked out at 0.631 nM; on MRCKβ [1] (setting [7]) it was 0.351 nM; at ROCK2 (setting [8]), 34.3 nM; on ROCK1 [5] it was 245 nM. Also, the IC50 against MRCKβ [2] is 952 nM; against ROCK1 [3], more than 30000 nM.

Consider `c1ncc(-c2c[nH]c3nccc(N4CC[C@@]5(CCCCN5)C4)c23)cn1` [Example E126, (5S)-2-(3-pyrimidin-5-yl-1H-pyrrolo[2,3-b]pyridin-4-yl)-2,6-diazaspiro[4.5]decane], for which the Ki on MRCKα (setting [6]) came to 0.0413 nM; at MRCKβ [1] (setting [7]), 0.057 nM; on ROCK2 (setting [8]) it was 23.1 nM; at ROCK1 [5], 68.3 nM. Further, the figures for the IC50 at MRCKβ [2] (setting [9]) and at ROCK1 [3] (setting [10]) were 1270 nM and more than 30000 nM, respectively.

For the compound `c1csc(-c2c[nH]c3nccc(N4CC[C@@]5(CCCCN5)C4)c23)n1` [Example E133, 2-[4-[(5S)-2,6-diazaspiro[4.5]decan-2-yl]-1H-pyrrolo[2,3-b]pyridin-3-yl]thiazole], the Ki was 0.0149 nM at MRCKα, 0.03 nM on MRCKβ [1], 6.41 nM on ROCK2 and 25.9 nM at ROCK1 [4]. The IC50 on MRCKβ [2] is 108 nM.

`CC1(N)CCCN(c2ccnc3[nH]cc(-c4nccs4)c23)C1` (centres unmarked) [Example E176, 3-methyl-1-(3-thiazol-2-yl-1H-pyrrolo[2,3-b]pyridin-4-yl)piperidin-3-amine]: the Ki on MRCKα (setting [6]) was 0.0934 nM; on MRCKβ [1] (setting [7]), 0.0923 nM; on ROCK2 (setting [8]) it was 42 nM; at ROCK1 [4], 67.1 nM. Moreover, at MRCKβ [2] (setting [9]), the IC50 was determined as 255 nM.
